Legend:
[1] = Dynamic moisture sorption (DMS) assessment; type: physicochemical
Method: A dynamic moisture sorption (DMS) assessment (also known as a moisture sorption-desorption profile) was performed for a hand ground samples of Form I, Form II and Form III of crystalline biphenyl-2-ylcarbamic acid 1-[2-(4-{[(R)-2-(3-formylamino-4-hydroxyphenyl)-2-hydroxyethylamino]methyl}-2,5-dimethylphenylcarbamoyl)-ethyl]piperidin-4-yl ester using a VTI atmospheric microbalance, SGA-100 system (VTI Corp., Hialeah, Fla. 33016). A sample size of approximately 10 mg was used and the humidity was set at the ambient value at the start of the analysis. A typical DMS analysis consisted of three scans: ambient to 2% relative humidity (RH), 2% RH to 90% RH, 90% RH to 5% RH at a scan rate of 5% RH/step. The mass was measured every two minutes and the RH was changed to the next value (±5% RH) when the mass of the sample was stable to within 0.01% for 5 consecutive points. Representative DMS traces for Form I, Form II and Form III are shown in FIGS. 10, 11 and 12, respectively.

[2] = Differential scanning calorimetry, thermal stability; type: physicochemical; settings: DSC, FIG. 5
Method: Differential scanning calorimetry (DSC) was performed using a TA Instruments Model Q-100 module with a Thermal Analyst controller. Data were collected and analyzed using TA Instruments Thermal Solutions software. A sample of about 1 mg was accurately weighed into an aluminum pan with lid. The sample was evaluated using a linear heating ramp of 5° C./min from ambient temperature to approximately 300° C. The DSC cell was purged with dry nitrogen during use. Representative DSC traces for samples of Form I, Form II and Form III of crystalline biphenyl-2-ylcarbamic acid 1-[2-(4-{[(R)-2-(3-formylamino-4-hydroxyphenyl)-2-hydroxyethylamino]methyl}-2,5-dimethylphenylcarbamoyl)ethyl]piperidin-4-yl ester are shown in FIGS. 4, 5 and 6, respectively.

[3] = test system: bronchoconstriction; experiment: Einthoven assay, duration of bronchoprotection; settings: guinea pigs, 10 μg/mL

| hygroscopicity ([1]; DMS, 2% RH to 90% RH, reversible sorption/desorption profile) | weight gain ([1]; humidity range of 40% RH to 75% RH, DMS trace FIG. 11) | weight gain ([1]; humidity range of 40% relative humidity to 75% relative humidity) | deliquescence ([1]; moisture sorption/desorption, exposure to atmospheric moisture) | thermal stability [2] | Structure (SMILES) | duration of significant bronchoprotection [3] |
| --- | --- | --- | --- | --- | --- | --- |
| < 5% | about 0.3 weight % | less than 0.5% | not deliquescent | excellent thermal stability | Cc1cc(NC(=O)CCN2CCC(OC(=O)Nc3ccccc3-c3ccccc3)CC2)c(C)cc1CNC[C@H](O)c1ccc(O)c(NC=O)c1 [Form II, Biphenyl-2-ylcarbamic acid 1-[2-(4-{[(R)-2-(3-Formylamino-4-hydroxyphenyl)-2-hydroxyethylamino]methyl}-2,5-dimethylphenylcarbamoyl)ethyl]piperidin-4-yl Ester] |  |
|  |  |  |  |  | C[N+]1(C)[C@@H]2C[C@@H](OC(=O)C(O)(c3cccs3)c3cccs3)C[C@H]1[C@@H]1O[C@@H]12 [tiotropium] | greater than 72 hours |

Reference: patent US7880010B2, “Crystalline forms of a dimethylphenyl compound” (Theravance, Inc., priority 2006, dated 2011)
